Publication PMC12213745, “Compounds from Cyclocarya paliurus leaves inhibit binary division of methicillin-resistant Staphylococcus aureus by disrupting FtsZ dynamic” (Frontiers in Microbiology, 2025)

System: MRSA-4
Assay: MRSA skin infection model
Assay type: in vivo, BALB/c mice
Method: All animal experiments were conducted in accordance with the NIH Guide for the Care and Use of Laboratory Animals and the institutional guidelines of West China Hospital, Sichuan University. The study was approved by the Institutional Animal Care and Use Committee (HX20220224085). Female BALB/c mice (6–8 weeks old) were obtained from Chengdu DOSSY Experimental Animal Co., Ltd. (Chengdu, China) and randomly assigned to five groups (n = 6 per group). On day 0, mice were subcutaneously inoculated with 2 × 10^8 CFUs of MRSA-4 suspended in 50 μL of sterile PBS. Treatment commenced 24 h post-infection. Mice received once daily subcutaneous injections at the site of infection for four consecutive days with either AA (0.2, 0.4, or 0.8 mg/kg), vancomycin (0.8 mg/kg, positive control), or PBS (negative control). Lesion progression was monitored daily by photographing the infected area, and wound sizes were quantified using ImageJ software (Version 1.42q, NIH, USA). On day 5 post-infection, mice were anesthetized and euthanized. The whole lesioned skin tissues were aseptically excised, homogenized in 1 mL of sterile PBS, and serially diluted. Aliquots were plated on LB agar and incubated at 37°C overnight to determine bacterial burdens.
Building on its rapid bactericidal activity in vitro and unique FtsZ-binding profile, we next evaluated the in vivo therapeutic efficacy of AA using a murine skin infection model. The model was established in BALB/c mice by subcutaneous inoculation with 2 × 10^8 CFU of MRSA-4 (Figure 7A). Treatment began 24 h post-infection and consisted of daily subcutaneous injections at the infection site for four consecutive days with AA (0.2, 0.4, or 0.8 mg/kg), vancomycin (at 0.8 mg/kg; positive control), or PBS (negative control). Therapeutic outcomes were assessed on day 5 post-infection by quantifying bacterial burden, visually monitoring wound healing, and measuring abscess size.

[1] = 0.8 mg/kg s.c. once daily for 4 days, day 5, vs PBS

Compound: C[C@H]1[C@H](C)CC[C@]2(C(=O)O)CC[C@]3(C)C(=CC[C@@H]4[C@@]5(C)C[C@@H](O)[C@H](O)[C@@](C)(CO)[C@@H]5CC[C@]43C)[C@H]12 [AA, asiatic acid]
- wound healing (visual inspection) (0.8 mg/kg s.c. once daily for 4 days): substantial amelioration of symptoms
- abscess size [1]: significantly reduced abscess dimensions
- bacterial load in infected skin tissues [1]: significantly reduced bacterial counts
- bacterial load in infected skin tissues (0.2 and 0.4 mg/kg s.c. once daily for 4 days, day 5, vs PBS): modest but dose-responsive decreases in bacterial load
- wound healing (visual inspection) (low-dose (0.2 and 0.4 mg/kg) s.c. once daily for 4 days): moderate, dose-dependent improvements in wound appearance
